Consider three compounds from publication PMC8069832, “New Amides and Phosphoramidates Containing Selenium: Studies on Their Cytotoxicity and Antioxidant Activities in Breast Cancer” (Antioxidants, 2021).

Like-named read-outs stand apart in the source and are kept apart here.

For series [1], the system named is 184B5. Kind of series: MTT cytotoxicity in nonmalignant mammary gland derived cells. The series is classed as cell-based. Conditions: for GI50 / IC (TGI): Homo sapiens; for GI50: read-out: GI50 184B5; for IC (TGI): read-out: TGI 184B5. The gist of the method: (§1)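 184B5 cells grown in supplemented DMEM/F12, BEAS-2B in RPMI with 10% FBS. 1 × 10^4 cells/well exposed to increasing compound concentrations for 48 h at 37 °C, 5% CO2, then MTT 4 h and formazan dissolved in DMSO. At least 3 independent experiments in quadruplicate; cisplatin as reference.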

Assay in series [2]: as above
It counts as cell-based. Conditions: human. The gist of the method: as §1

Series [3] concerns MCF-7. Kind of series: Autophagy and caspase inhibition assays (wortmannin, Z-VAD-FMK pretreatment). It counts as cell-based, human. Conditions: I.1f 80 µM 72 h, I.2f 30 µM 24 h, II.2d 20 µM 24 h; for Compound-induced cell death after preincubation with wortmannin: 100 nM wortmannin 1 h; for Compound-induced cell death after preincubation with Z-VAD-FMK: 50 µM Z-VAD-FMK 1 h. The protocol: For autophagy and caspase inhibition assays, cells were pretreated with 100 nM of autophagy inhibitor (wortmannin, Santa Cruz) and 50 µM of pan-caspase inhibitor (Z-VAD-FMK, BD Pharmingen) for 1 h. The cells were treated with the compounds I.2f (30 µM) and II.2d (20 µM) for 24 h and I.1f (80 µM) for 72 h. Samples were processed following the same methodology stated above. DMSO was used as a negative control for both inhibitors.
Apoptosis and autophagy are considered as two recognized pathways for anticancer agents due to their effects on cell survival. In the next step, in order to investigate whether the cell death pathway is related to apoptosis or autophagy, we explored the effect of pre-treated cells with either an autophagy inhibitor (wortmannin) or a pan-caspase inhibitor (Z-VAD-FMK). According to the previous results, determinations were performed after treatment with 80 μM of I.1f for 72 h, 30 μM of I.2f for 24 h and 20 μM of II.2d for 24 h.

Series [4] relates to MCF-7. The series can be described thus: Cell cycle phase distribution by flow cytometry. The series is classed as cell-based, human. Conditions: 24 h, different doses. The protocol: For the MCF-7 cell line, both cell cycle analysis and the cell death percentage were determined using the Apo-Direct kit (BD Pharmingen) based on the TUNEL technique, according to the manufacturer’s instructions. Cells were seeded in 25 cm^2 flasks (3 × 10^6 for 24 h of treatment, 2 × 10^6 for 48 h and 10^6 for 72 h) treated with DMSO (negative control), 6 µM of camptothecin (positive control) and different concentrations of I.1f, I.2f and II.2d.
After treatment, cells were collected and fixed with 1% paraformaldehyde (Sigma) in PBS (pH = 7.4), incubated in ice for 40 min, collected by centrifugation, washed with PBS and incubated with 70% ethanol for 30 min at −20 °C. After fixation, cells were washed twice with PBS and incubated for 1 h at 37 °C with FITC dUTP-DNA Labeling Solution. Cells were then rinsed and incubated in the dark for 30 min at room temperature with PI/RNase staining buffer before being analyzed by flow cytometry (Coulter Epics XL, Beckman Coulter Flow cytometer). Then, cells were treated with compounds I.1f (80 µM), I.2f (30 µM) and II.2d (5 µM) at different times (from 8 to 72 h) following the same methodology.
Apoptosis and cell cycle arrest are typical mechanisms of action for many anticancer drugs, including selenocompounds [34, 35, 36]. In a first approach, the effect of the selected compounds on cell cycle progression and the induction of apoptosis was studied in MCF-7 cell cultures. Analyses were performed by flow cytometry using the Apo-Direct kit, based on the TUNEL technique under the conditions described by the manufacturer. The cells were treated with the corresponding compound at different concentrations and time points. Camptothecin was used as a positive control at 6 µM.
To further understand the mechanism of action of these potent compounds, their effects on cell cycle distribution in MCF-7 were studied by flow cytometry. This assay was carried out with different concentrations (Figure 6) and different time points (Figure 7).

In series [5] the test system is MCF-7. Conditions: read-out: GI50 MCF-7; 48 h, average ± SEM.
The mark [6] stands for this setting: 184B5, nonmalignant cells, 48 h.
Where [7] appears, read: nonmalignant cells, 48 h, read-out: LC50 184B5.

Regarding `O=C(Nc1ccc([Se][Se]c2ccc(NC(=O)c3ccc(C(F)(F)F)cc3)cc2)cc1)c1ccc(C(F)(F)F)cc1` [I.1f], in series [1] (setting [6]), the GI50 is 6.59 µM and the IC (TGI) was found to be 44 µM. In series [2], this compound came in with an LC50 (50% lethal concentration) at 48 h of 92.3 µM. For the same compound, in series [3], the “Compound-induced cell death after preincubation with wortmannin” value is listed as “prevented cell death” and the “Compound-induced cell death after preincubation with Z-VAD-FMK” value is “did not”. For the same compound, the “Cell cycle phase distribution” value in series [4] is “increased the number of cells in the S phase dose-dependently”.
On to `N#C[Se]c1ccc(NC(=O)c2ccc(C(F)(F)F)cc2)cc1` [I.2f], for which, in series [1] (setting [6]), the GI50 worked out at 16.6 µM and the IC (TGI) was over 100 µM. In addition, the LC50 (50% lethal concentration) in series [2] (setting [7]) is over 100 µM. For the same compound, in series [3], the “Compound-induced cell death after preincubation with wortmannin” value was “prevented cell death” and the “Compound-induced cell death after preincubation with Z-VAD-FMK” value was “did not”. Further, the GI50 in series [5] is 0.9 µM. Further, the “Cell cycle phase distribution” value in series [4] is reported as “increased the number of cells in the S phase dose-dependently”.
As for `CCOP(=O)(Nc1ccc([Se]C#N)cc1)OCC` [II.2d], in series [1] (184B5, 48 h), the GI50 came to 5.7 µM and the IC (TGI) turned out to be 7.31 µM. Further, the “Selectivity index (SI) = GI50 (184B5)/GI50 (MCF-7)” value in series [1] (breast) was found to be 6.33. Besides, the CC50 at 48 h in series [2] (setting [7]) was determined as 8.93 µM. Besides, in series [3], the “Compound-induced cell death after preincubation with wortmannin” value is on record as “could not prevent cell death” and the “Compound-induced cell death after preincubation with Z-VAD-FMK” value is on record as “prevented it”. Further, in series [5], the GI50 turned out to be 0.9 ± 0.1 µM. For the same compound, the “Cell cycle phase distribution” value in series [4] was “arrested them in G0/G1 phase”.
